The results in this text go back to patent publication US11998539B2, “Substituted aminoquinolones as DGKalpha inhibitors for immune activation” (Bayer Aktiengesellschaft, priority 2019, dated 2024).

Sequence of DGKα (P23743 other isoform, or with tags, fused parts or gaps): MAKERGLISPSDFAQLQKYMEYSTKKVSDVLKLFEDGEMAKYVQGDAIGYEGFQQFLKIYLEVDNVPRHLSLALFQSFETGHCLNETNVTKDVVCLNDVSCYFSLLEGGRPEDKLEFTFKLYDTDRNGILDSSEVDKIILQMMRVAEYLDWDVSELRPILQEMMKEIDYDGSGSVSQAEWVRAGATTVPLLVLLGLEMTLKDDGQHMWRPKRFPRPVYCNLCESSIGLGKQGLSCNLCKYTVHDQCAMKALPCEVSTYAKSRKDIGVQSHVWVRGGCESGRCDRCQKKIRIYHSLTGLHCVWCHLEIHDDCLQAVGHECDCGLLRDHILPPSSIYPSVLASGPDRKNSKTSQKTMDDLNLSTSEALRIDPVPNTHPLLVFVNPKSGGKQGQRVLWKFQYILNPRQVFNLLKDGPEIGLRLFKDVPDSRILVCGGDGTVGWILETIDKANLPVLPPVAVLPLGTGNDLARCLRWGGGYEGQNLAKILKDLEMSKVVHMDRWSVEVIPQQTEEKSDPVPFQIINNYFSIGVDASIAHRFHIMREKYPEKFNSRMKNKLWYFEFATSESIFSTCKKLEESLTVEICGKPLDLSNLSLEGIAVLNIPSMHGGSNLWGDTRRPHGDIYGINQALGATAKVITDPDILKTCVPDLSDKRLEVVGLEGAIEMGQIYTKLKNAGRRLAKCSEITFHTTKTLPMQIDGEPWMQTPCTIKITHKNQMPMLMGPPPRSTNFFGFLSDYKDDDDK

The target of the assay is DGKα (Homo sapiens (Human), UniProt P23743). Put plainly: Human DGKα kinase activity inhibition assay (ADP-Glo). The assay is classed as biochemical. As to conditions: recombinant full-length human DGKα, 55 μM ATP, 7 μM 1,2-dioleoyl-sn-glycerol, read-out: IC50 values of examples in in vitro human DGKa kinase activity inhibition assays. The procedure, abridged:
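Recombinant full-length human DGKα (C-terminal FLAG, from insect cells) phosphorylated 1,2-dioleoyl-sn-glycerol presented in octyl-glucopyranoside micelles. ADP formed was quantified by ADP-Glo luminescence. Compounds were added from 100-fold DMSO stocks.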
A general note: ADP-Glo turns the ADP formed in a reaction into a luminescent signal.
`Cc1ccc2oc(C3(C)CCN(c4c(C#N)c(=O)n(C)c5c(C6CC6)cccc45)CC3)nc2c1` [Example 272, 8-cyclopropyl-1-methyl-4-[4-methyl-4-(5-methyl-1,3-benzoxazol-2-yl)piperidin-1-yl]-2-oxo-1,2-dihydroquinoline-3-carbonitrile]: the IC50 (commonly the concentration that gives 50% inhibition) was determined as 113 nM.

With `Cn1c(=O)c(C#N)c(N2CCC(c3ccn(-c4ccc(Cl)cc4)n3)CC2)c2ccccc21` [Example 369, 4-{4-[1-(4-chlorophenyl)-1H-pyrazol-3-yl]piperidin-1-yl}-1-methyl-2-oxo-1,2-dihydroquinoline-3-carbonitrile], the IC50 is 14 nM.

For the compound `Cc1ccc2oc(C3(C)CCN(c4c(C(N)=O)c(=O)n(C)c5ccc(C#N)cc45)CC3)nc2c1` [Example 208, 6-cyano-1-methyl-4-[4-methyl-4-(5-methyl-1,3-benzoxazol-2-yl)piperidin-1-yl]-2-oxo-1,2-dihydroquinoline-3-carboxamide], the concentration for half-maximal inhibition (IC50) worked out at 3.4 nM.

Consider `Cn1c(=O)c(C#N)c(N2CCC(C)(c3nc4ccccc4o3)CC2)c2ccc(Cl)cc21` [Example 226, 4-[4-(1,3-benzoxazol-2-yl)-4-methylpiperidin-1-yl]-7-chloro-1-methyl-2-oxo-1,2-dihydroquinoline-3-carbonitrile], for which the IC50 was 1.3 nM.

On to `Cn1c(=O)c(C#N)c(N2CCC(c3ccccc3)CC2)c2ccc(OC3CC3)cc21` [Example 264, 7-(cyclopropyloxy)-1-methyl-2-oxo-4-(4-phenylpiperidin-1-yl)-1,2-dihydroquinoline-3-carbonitrile], for which the IC50 was 49 nM.

For the compound `Cn1c(=O)c(C#N)c(N2CCC(c3cccc4scnc34)CC2)c2ccccc21` [Example 71, 4-[4-(1,3-benzothiazol-4-yl)piperidin-1-yl]-1-methyl-2-oxo-1,2-dihydroquinoline-3-carbonitrile], the IC50 came to 23 nM.

Consider `Cn1c(=O)oc2cc(C3CCN(c4c(C#N)c(=O)n(C)c5ccccc45)CC3)ccc21` [Example 362, 1-methyl-4-[4-(3-methyl-2-oxo-2,3-dihydro-1,3-benzoxazol-6-yl)piperidin-1-yl]-2-oxo-1,2-dihydroquinoline-3-carbonitrile], for which the IC50 is 106 nM.

Consider `Cn1c(=O)c(C#N)c(N2CCC(c3nc4ccccc4s3)CC2)c2cc(C3CC3)ccc21` [Example 276, 4-[4-(1,3-benzothiazol-2-yl)piperidin-1-yl]-6-cyclopropyl-1-methyl-2-oxo-1,2-dihydroquinoline-3-carbonitrile], for which the IC50 turned out to be 216 nM.

Consider `Cc1ccc2oc(C3CCN(c4c(C(N)=O)c(=O)n(C)c5ccc(OCC(C)(F)F)cc45)CC3)nc2c1` [Example 503, 6-(2,2-difluoropropoxy)-1-methyl-4-[4-(5-methyl-1,3-benzoxazol-2-yl)piperidin-1-yl]-2-oxo-1,2-dihydroquinoline-3-carboxamide], for which the IC50 worked out at 2690 nM.

As for `COCCOc1ccc2c(N3CCC(c4nc5cc(C)ccc5o4)CC3)c(C#N)c(=O)n(C)c2c1` [Example 383, 7-(2-methoxyethoxy)-1-methyl-4-[4-(5-methyl-1,3-benzoxazol-2-yl)piperidin-1-yl]-2-oxo-1,2-dihydroquinoline-3-carbonitrile], the half-inhibitory concentration (IC50) was 5.1 nM.

As for `Cc1ccc2oc(C3(C)CCN(c4c(C#N)c(=O)n(C)c5ccc(CC6COC6)cc45)CC3)nc2c1` [Example 286, 1-methyl-4-[4-methyl-4-(5-methyl-1,3-benzoxazol-2-yl)piperidin-1-yl]-6-[(oxetan-3-yl)methyl]-2-oxo-1,2-dihydroquinoline-3-carbonitrile], the IC50 came out at 374 nM.

Consider `COc1cccc(C2CCN(c3c(C#N)c(=O)n(C)c4ccccc34)CC2)c1` [Example 55, 4-[4-(3-methoxyphenyl)piperidin-1-yl]-1-methyl-2-oxo-1,2-dihydroquinoline-3-carbonitrile], for which the IC50 stood at 14 nM.

`Cn1c(=O)c(C#N)c(N2CCC(c3nc4cc(OCC5CCCO5)ccc4o3)CC2)c2ccccc21` (centres unmarked) [Example 387, 1-methyl-2-oxo-4-(4-{5-[(oxolan-2-yl)methoxy]-1,3-benzoxazol-2-yl}piperidin-1-yl)-1,2-dihydroquinoline-3-carbonitrile]: the IC50 turned out to be 8.9 nM.

For the compound `Cc1ccc2oc(C3(C)CCN(c4c(C#N)c(=O)n(C)c5cc(N6C[C@H](O)CC6=O)ccc45)CC3)nc2c1` [Example 269, 7-[(4R)-4-hydroxy-2-oxopyrrolidin-1-yl]-1-methyl-4-[4-methyl-4-(5-methyl-1,3-benzoxazol-2-yl)piperidin-1-yl]-2-oxo-1,2-dihydroquinoline-3-carbonitrile], the IC50 came to 71 nM.

In the case of `Cc1ccc2c(c1)c(N1CCC(c3nc4ccc(Cl)cc4o3)CC1)c(C#N)c(=O)n2C` [Example 183, 4-[4-(6-chloro-1,3-benzoxazol-2-yl)piperidin-1-yl]-1,6-dimethyl-2-oxo-1,2-dihydroquinoline-3-carbonitrile], the 50% inhibitory concentration (IC50) was 1.5 nM.

As for `Cc1ccc(-c2csc(C3CCN(c4c(C(N)=O)c(=O)n(C)c5ccccc45)CC3)n2)cc1` [Example 478, 1-methyl-4-{4-[4-(4-methylphenyl)-1,3-thiazol-2-yl]piperidin-1-yl}-2-oxo-1,2-dihydroquinoline-3-carboxamide], the 50% inhibitory concentration (IC50) was found to be 9.4 nM.

On to `Cc1ccc2c(c1)c(N1CCC(c3nc4cc(C(C)C)ccc4o3)CC1)c(C(N)=O)c(=O)n2C` [Example 200, 1,6-dimethyl-2-oxo-4-{4-[5-(propan-2-yl)-1,3-benzoxazol-2-yl]piperidin-1-yl}-1,2-dihydroquinoline-3-carboxamide], for which the IC50 amounted to 3.9 nM.

Take `Cn1c(=O)c(C#N)c(N2CCC(c3cccc(C4CC4)c3)CC2)c2ccccc21` [Example 45, 4-[4-(3-cyclopropylphenyl)piperidin-1-yl]-1-methyl-2-oxo-1,2-dihydroquinoline-3-carbonitrile]: the IC50 is 2.1 nM.

Turning to `Cc1ccc2oc(C3(C)CCN(c4c(C#N)c(=O)n(C)c5ccc(C)cc45)CC3)nc2c1` [Example 187, 1,6-dimethyl-4-[4-methyl-4-(5-methyl-1,3-benzoxazol-2-yl)piperidin-1-yl]-2-oxo-1,2-dihydroquinoline-3-carbonitrile], the IC50 amounted to 2 nM.

Regarding `Cn1c(=O)c(C#N)c(N2CCC(C)(c3nc4ccc(OC(F)(F)F)cc4o3)CC2)c2ccccc21` [Example 20, 1-methyl-4-{4-methyl-4-[6-(trifluoromethoxy)-1,3-benzoxazol-2-yl]piperidin-1-yl}-2-oxo-1,2-dihydroquinoline-3-carbonitrile], the IC50 is 1.5 nM.

For `Cc1cccc(-c2nnc(C3CCN(c4c(C(N)=O)c(=O)n(C)c5ccc(Br)cc45)CC3)o2)c1` [Example 526, 6-bromo-1-methyl-4-{4-[5-(3-methylphenyl)-1,3,4-oxadiazol-2-yl]piperidin-1-yl}-2-oxo-1,2-dihydroquinoline-3-carboxamide], the IC50 came out at 27 nM.

For `Cn1c(=O)c(C#N)c(N2CCC(c3ccc(-c4ccccc4)cc3)CC2)c2ccccc21` [Example 53, 4-[4-([1,1′-biphenyl]-4-yl)piperidin-1-yl]-1-methyl-2-oxo-1,2-dihydroquinoline-3-carbonitrile], the IC50 came to 13 nM.

With `Cc1ccccc1-c1noc(C2CCN(c3c(C#N)c(=O)n(C)c4cc(O)c(Br)cc34)CC2)n1` [Example 531, 6-bromo-7-hydroxy-1-methyl-4-{4-[3-(2-methylphenyl)-1,2,4-oxadiazol-5-yl]piperidin-1-yl}-2-oxo-1,2-dihydroquinoline-3-carbonitrile], the IC50 worked out at 8.1 nM.

Regarding `Cc1ccc2oc(C3(C)CCN(c4c(C(N)=O)c(=O)n(C)c5cc(C)ccc45)CC3)nc2c1` [Example 312, 1,7-dimethyl-4-[4-methyl-4-(5-methyl-1,3-benzoxazol-2-yl)piperidin-1-yl]-2-oxo-1,2-dihydroquinoline-3-carboxamide], the IC50 worked out at 0.7 nM.

In the case of `Cc1ccc2c(c1)c(N1CCC(C)(c3nc4cc(C(C)C)ccc4o3)CC1)c(C(N)=O)c(=O)n2C` [Example 199, 1,6-dimethyl-4-{4-methyl-4-[5-(propan-2-yl)-1,3-benzoxazol-2-yl]piperidin-1-yl}-2-oxo-1,2-dihydroquinoline-3-carboxamide], the IC50 was found to be 3.4 nM.

In the case of `COc1ccc(C2CCN(c3c(C#N)c(=O)n(C)c4ccc(S(C)(=O)=O)cc34)CC2)cc1` [Example 178, 6-(methanesulfonyl)-4-[4-(4-methoxyphenyl)piperidin-1-yl]-1-methyl-2-oxo-1,2-dihydroquinoline-3-carbonitrile], the IC50 worked out at 298 nM.

Take `COCCc1cccc2oc(C3CCN(c4c(C(N)=O)c(=O)n(C)c5ccccc45)CC3)nc12` [Example 315, 4-{4-[4-(2-methoxyethyl)-1,3-benzoxazol-2-yl]piperidin-1-yl}-1-methyl-2-oxo-1,2-dihydroquinoline-3-carboxamide]: the IC50 worked out at 46 nM.

As for `Cn1c(=O)c(C(N)=O)c(N2CCC(c3nc4ccccc4o3)CC2)c2ccc(Cl)cc21` [Example 300, 4-[4-(1,3-benzoxazol-2-yl)piperidin-1-yl]-7-chloro-1-methyl-2-oxo-1,2-dihydroquinoline-3-carboxamide], the IC50 came to 1.2 nM.

Consider `Cn1c(=O)c(C#N)c(N2CCC(c3ccc(N4CCCC4=O)cc3)CC2)c2ccccc21` [Example 59], for which the IC50 amounted to 23 nM.

`Cc1ccc2oc(C3CCN(c4c(C#N)c(=O)n(C)c5cc(OCC(N)=O)ccc45)CC3)nc2c1` [Example 413, 2-({3-cyano-1-methyl-4-[4-(5-methyl-1,3-benzoxazol-2-yl)piperidin-1-yl]-2-oxo-1,2-dihydroquinolin-7-yl}oxy)acetamide]: the IC50 turned out to be 1 nM.

As for `Cc1ccc(C2CCN(c3c(C#N)c(=O)n(C)c4ccccc34)CC2)cc1` [Example 83, 1-methyl-4-[4-(4-methylphenyl)piperidin-1-yl]-2-oxo-1,2-dihydroquinoline-3-carbonitrile], the IC50 was found to be 4.4 nM.

As to `Cn1c(=O)c(C#N)c(N2CCC(C)(c3nc4ccccc4o3)CC2)c2cc(F)ccc21` [Example 216, 4-[4-(1,3-benzoxazol-2-yl)-4-methylpiperidin-1-yl]-6-fluoro-1-methyl-2-oxo-1,2-dihydroquinoline-3-carbonitrile], the half-inhibitory concentration (IC50) stood at 0.4 nM.
